According to patent publication EP4600260A1, “KERATIN YK93-4, AND PREPARATION METHOD THEREFOR, PHARMACEUTICAL COMPOSITION THEREOF AND USE THEREOF” (INSTITUTE OF MATERIA MEDICA, CHINESE ACADEMY OF MEDICAL …, priority 2022, dated 2024):

System: EL-4 lymphoma
Conditions: cyclophosphamide 100 mg/kg, intraperitoneal, single; routine blood analysis, P<0.05
Method: Preparation of experimental animals: The experimental animals were adapted to the experimental environment (temperature 22°C±2°C, relative humidity 50%±2%) for 1 day.
Subcutaneous inoculation of EL-4 cell suspension to replicate a mouse lymphoma model: The EL-4 tumor tissue was ground into a suspension using a glass homogenizer, the tumor suspension was aspirated with a syringe, the number of live cells was calculated, the cell concentration was adjusted to 2.0*10^6/ml with physiological saline, and then the suspension was injected into the left armpit of mice with 0.2 ml/mouse. […] On the day of treatment, weight was measured, 20µl of blood was obtained from the orbital blood and the routine blood analysis was performed. The tumor blocks were stripped, weighed and photographed, and the tumor suppression rate was calculated.
The tumor suppression rate [(The average weight of the tumor in the normal control group - the average weight of the tumor in the experimental group) / The average weight of the tumor in the normal control group × 100 %] and average value, standard deviation and standard errors of tumor weight were calculated. The data from the groups were compared with each other by T.TEST, and P<0.05 was considered as a significant difference.

O=P1(N(CCCl)CCCl)NCCCO1 (stereo not shown) [cyclophosphamide, Cyclophosphamide]
number of leukocytes, lymphocytes, monocytes, and neutrophils: significantly reduced
